Where “and” joins values, the source holds several entries; their conditions need not be identical. Equal entries are not always repeated. Toxic doses and inconclusive results are not listed. Rule as the data show it: active = T/C of 150% or more; inactive = T/C below 125%.
Test system: L1210 leukemia ip in BDF1 mice, survival T/C
Assay: NCI In Vivo Anticancer Drug Screen. Data for tumor model L1210 Leukemia (intraperitoneal) in B6D2F1 (BDF1) mice
Settings: endpoint: mean survival time, higher = longer survival
Procedure, shortened: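 Read-out is survival time, reported as the treated-group measurement over the vehicle-control measurement.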

[1] = dose: 100.0 mg/kg/injection, schedule: Q01DX009 (ip), vehicle: saline with Tween-80
[2] = dose: 200.0 mg/kg/injection, schedule: Q01DX009 (ip), vehicle: saline with Tween-80
[3] = dose: 100.0 mg/kg/injection, schedule: Q01DX009 (ip), vehicle: Klucel (hydroxypropylcellulose) (HPC)
[4] = dose: 200.0 mg/kg/injection, schedule: Q01DX009 (ip), vehicle: Klucel (hydroxypropylcellulose) (HPC)
[5] = dose: 400.0 mg/kg/injection, schedule: Q01DX009 (ip), vehicle: Klucel (hydroxypropylcellulose) (HPC)
[6] = dose: 100.0 mg/kg/injection, schedule: Q04DX003 (ip), vehicle: Klucel (hydroxypropylcellulose) (HPC)
[7] = dose: 200.0 mg/kg/injection, schedule: Q04DX003 (ip), vehicle: Klucel (hydroxypropylcellulose) (HPC)
[8] = dose: 400.0 mg/kg/injection, schedule: Q04DX003 (ip), vehicle: Klucel (hydroxypropylcellulose) (HPC)
[9] = dose: 50.0 mg/kg/injection, schedule: Q01DX009 (ip), vehicle: saline
[10] = dose: 100.0 mg/kg/injection, schedule: Q01DX009 (ip), vehicle: saline
[11] = dose: 100.0 mg/kg/injection, schedule: Q04DX003 (ip), vehicle: saline
[12] = dose: 200.0 mg/kg/injection, schedule: Q01DX009 (ip), vehicle: saline
[13] = dose: 200.0 mg/kg/injection, schedule: Q04DX003 (ip), vehicle: saline
[14] = dose: 400.0 mg/kg/injection, schedule: Q04DX003 (ip), vehicle: saline
[15] = dose: 100.0 mg/kg/injection, schedule: Q01DX001 (ip), vehicle: Klucel (hydroxypropylcellulose) (HPC)
[16] = dose: 100.0 mg/kg/injection, schedule: Q04DX002 (ip), vehicle: Klucel (hydroxypropylcellulose) (HPC)
[17] = dose: 200.0 mg/kg/injection, schedule: Q01DX001 (ip), vehicle: Klucel (hydroxypropylcellulose) (HPC)
[18] = dose: 200.0 mg/kg/injection, schedule: Q04DX002 (ip), vehicle: Klucel (hydroxypropylcellulose) (HPC)
[19] = dose: 400.0 mg/kg/injection, schedule: Q01DX001 (ip), vehicle: Klucel (hydroxypropylcellulose) (HPC)
[20] = dose: 400.0 mg/kg/injection, schedule: Q04DX002 (ip), vehicle: Klucel (hydroxypropylcellulose) (HPC)
[21] = dose: 50.0 mg/kg/injection, schedule: Q01DX009 (ip), vehicle: saline with Tween-80
[22] = dose: 100.0 mg/kg/injection, schedule: Q01DX001 (ip), vehicle: saline with Tween-80
[23] = dose: 100.0 mg/kg/injection, schedule: Q04DX003 (ip), vehicle: saline with Tween-80
[24] = dose: 200.0 mg/kg/injection, schedule: Q01DX001 (ip), vehicle: saline with Tween-80
[25] = dose: 200.0 mg/kg/injection, schedule: Q04DX003 (ip), vehicle: saline with Tween-80
[26] = dose: 400.0 mg/kg/injection, schedule: Q01DX001 (ip), vehicle: saline with Tween-80
[27] = dose: 400.0 mg/kg/injection, schedule: Q04DX003 (ip), vehicle: saline with Tween-80
[28] = dose: 50.0 mg/kg/injection, schedule: Q01DX009 (ip), vehicle: Klucel (hydroxypropylcellulose) (HPC)
[29] = dose: 400.0 mg/kg/injection, schedule: Q01DX009 (ip), vehicle: saline

Measured: T/C

CC(C)C1=CC23CCC4C(C)(C(=O)O)CCCC4(C)C2CC1OO3 (stereo not drawn)
inactive: [1] 100 % of control | [2] 97 % of control | dose: 400.0 mg/kg/injection, schedule: Q01DX009 (ip), vehicle: saline with Tween-80 97 % of control

CCCCCC(=O)Oc1c(C(C)(C)C)cc([N+](=O)[O-])c(C)c1[N+](=O)[O-]
inactive: dose: 100.0 mg/kg/injection, schedule: Q04DX002 (ip), vehicle: saline 93 % of control | dose: 200.0 mg/kg/injection, schedule: Q04DX002 (ip), vehicle: saline 93 % of control

O=[N+]([O-])c1ccc(NC(=S)NS(=O)(=O)c2ccccc2)c(Cl)c1
inactive: [3] 97 % of control | [4] 97 % of control | [5] 88 % of control

Nc1nc(-c2ccccc2N=NN2CCOCC2)nc2ccccc12
inactive: [6] 101 % of control | [7] 103 % of control | [8] 101 % of control

NCc1ccc(F)cc1
inactive: [9] 102 % of control | [10] 95 % of control | [11] 100 % of control | [12] 95 % of control | [13] 92 % of control

NC(=O)C[n+]1cccc(C(=O)Nc2ccccc2)c1
inactive: [11] 97 % of control | [13] 101 % of control | [14] 87 % of control

Cc1cccc(NC(=O)Nc2cc(C)on2)c1
inactive: [15] 100 % of control | [3] 91 % of control | [16] 98 % of control and 102 % of control | [6] 92 % of control | [17] 95 % of control | [4] 94 % of control and 91 % of control | [18] 94 % of control and 98 % of control | [7] 93 % of control | [19] 95 % of control | [5] 100 % of control and 91 % of control | [20] 98 % of control and 109 % of control | [8] 93 % of control

CCO/C(C)=N/c1n[n+]([O-])ccc1C
inactive: dose: 40.0 mg/kg/injection, schedule: Q04DX002 (ip), vehicle: saline 104 % of control | dose: 80.0 mg/kg/injection, schedule: Q04DX002 (ip), vehicle: saline 96 % of control | dose: 160.0 mg/kg/injection, schedule: Q04DX002 (ip), vehicle: saline 104 % of control

CCCCOC(=O)c1ccc(OC(=O)Nc2ccc(Cl)cc2)cc1
inactive: dose: 25.0 mg/kg/injection, schedule: Q01DX009 (ip), vehicle: saline with Tween-80 101 % of control and 110 % of control | [21] 101 % of control and 110 % of control | [22] 104 % of control | dose: 100.0 mg/kg/injection, schedule: Q04DX002 (ip), vehicle: saline with Tween-80 93 % of control and 115 % of control | [23] 94 % of control | [24] 95 % of control | dose: 200.0 mg/kg/injection, schedule: Q04DX002 (ip), vehicle: saline with Tween-80 95 % of control and 110 % of control | [25] 94 % of control | [26] 98 % of control | dose: 400.0 mg/kg/injection, schedule: Q04DX002 (ip), vehicle: saline with Tween-80 100 % of control and 106 % of control | [27] 97 % of control

O=C(Nc1ccccc1C(=O)c1ccccc1)c1ccc(Cl)cc1Cl
inactive: [21] 105 % of control | [1] 94 % of control | [2] 87 % of control

N#CCCCCCCN=[N+]=[N-]
inactive: dose: 37.5 mg/kg/injection, schedule: Q04DX003 (ip), vehicle: saline 106 % of control | dose: 75.0 mg/kg/injection, schedule: Q04DX003 (ip), vehicle: saline 101 % of control | dose: 150.0 mg/kg/injection, schedule: Q04DX003 (ip), vehicle: saline 102 % of control

O=C1c2ccccc2C(=O)N1SN1C(=O)c2ccccc2C1=O
inactive: dose: 25.0 mg/kg/injection, schedule: Q01DX009 (ip), vehicle: Klucel (hydroxypropylcellulose) (HPC) 92 % of control | [28] 93 % of control | [3] 97 % of control

O=NO.[Co].[NH2-].[NH2-].[NH2-].[NH2-].[NH2-]
inactive: dose: 25.0 mg/kg/injection, schedule: Q04DX003 (ip), vehicle: saline 101 % of control

COC(=O)c1cc([N+](=O)[O-])cc2ccccc12
inactive: [3] 99 % of control | [6] 105 % of control | [4] 96 % of control | [7] 94 % of control | [8] 97 % of control

C[CH2][Sb]([Cl])([CH2]C)([CH2]C)[O][Sb]([Cl])([CH2]C)([CH2]C)[CH2]C
inactive: dose: 10.0 mg/kg/injection, schedule: Q01DX001 (ip), vehicle: saline 109 % of control | dose: 20.0 mg/kg/injection, schedule: Q01DX001 (ip), vehicle: saline 114 % of control | dose: 40.0 mg/kg/injection, schedule: Q01DX001 (ip), vehicle: saline 123 % of control

CC(C#N)(Nc1ccccc1)c1ccc(Br)cc1 (stereo not drawn)
inactive: [6] 95 % of control | [7] 95 % of control | [8] 95 % of control

COc1cc(OC)c(NC(=O)C(Cl)(Cl)Cl)cc1Cl
inactive: [16] 98 % of control | [18] 95 % of control | [20] 95 % of control

NC(=O)c1cc(Cl)cc(Cl)c1Br
inactive: dose: 100.0 mg/kg/injection, schedule: Q04DX003 (ip), vehicle: other 95 % of control | dose: 200.0 mg/kg/injection, schedule: Q04DX003 (ip), vehicle: other 103 % of control

COc1ccc2c(ccc3nc(CCC(=O)O)n(C)c(=O)c32)c1
inactive: [28] 96 % of control | [3] 96 % of control | [4] 108 % of control

C=C(C)CN
inactive: [9] 109 % of control | [10] 117 % of control | [11] 93 % of control | [13] 106 % of control

CCCCOP1(=O)C=C(C)CC1 (stereo not drawn)
inactive: [23] 90 % of control | [25] 97 % of control | [27] 92 % of control

CN1CC2([N+](=O)[O-])C=CCC([N+](=O)[O-])(C1)C2 (stereo not drawn)
inactive: dose: 25.0 mg/kg/injection, schedule: Q01DX009 (ip), vehicle: water 98 % of control | dose: 50.0 mg/kg/injection, schedule: Q01DX009 (ip), vehicle: water 102 % of control | dose: 100.0 mg/kg/injection, schedule: Q01DX009 (ip), vehicle: water 104 % of control | dose: 200.0 mg/kg/injection, schedule: Q01DX009 (ip), vehicle: water 103 % of control

COc1ccc(NC(=O)Nc2ccc(Cl)cc2)cc1
inactive: [3] 97 % of control | [6] 104 % of control | [4] 98 % of control | [7] 104 % of control | [5] 93 % of control | [8] 106 % of control

O=S(=O)(O)c1cc(Cl)cc(Cl)c1O
inactive: [10] 96 % of control | [11] 113 % of control | [12] 100 % of control | [13] 105 % of control | [29] 105 % of control | [14] 107 % of control

O=C(O)c1ccc(-c2ccc(O)cc2)cc1
inactive: [3] 98 % of control | [4] 101 % of control | [5] 102 % of control

C[n+]1cccc(C(=O)N/N=C/c2ccccc2)c1
inactive: [22] 96 % of control | [24] 96 % of control | [26] 96 % of control

C=C1C(=O)OC2/C=C(/CO)C3OC3C3OC3(C)CC(OC(=O)/C(C)=C\COC(C)=O)C12 (stereo not drawn)
inactive: dose: 25.0 mg/kg/injection, schedule: Q04DX003 (ip), vehicle: Klucel (hydroxypropylcellulose) (HPC) 98 % of control | dose: 50.0 mg/kg/injection, schedule: Q04DX003 (ip), vehicle: Klucel (hydroxypropylcellulose) (HPC) 104 % of control | [6] 94 % of control and 89 % of control

Cc1c(NC(=O)Nc2cc(C(F)(F)F)ccc2Cl)c(=O)n(-c2ccccc2)n1C
inactive: [16] 96 % of control | [18] 96 % of control | [20] 105 % of control

Cc1nc2ccccc2c(C)c1-c1c(C)nc2ccccc2c1C
inactive: [15] 98 % of control | [10] 97 % of control | [11] 100 % of control | [17] 108 % of control | [12] 95 % of control | [13] 97 % of control | [19] 103 % of control | [29] 94 % of control | [14] 94 % of control

Reference: PubChem BioAssay AID248 (DTP/NCI, 2004)
